Test [1] relates to RAW 264.7 cells. The experiment in a line: Antioxidant activity, DCFH-DA oxidative stress model (H2O2 + LPS) in RAW 264.7 cells. As to conditions: Mus musculus, RAW264.7; 1000 μM H2O2 + 1 μg/mL LPS; highest concentration tested 50 μg/mL; parenthetic 95% confidence limits. The class given is cell-based, murine.
The subject of test [2] is Jurkat cells. In words: Antioxidant activity, DCFH-DA oxidative stress model (H2O2 + LPS) in Jurkat cells. The class given is cell-based. As to conditions: Homo sapiens, 1000 μM H2O2 + 1 μg/mL LPS, highest concentration tested 50 μg/mL, parenthetic 95% confidence limits. On the procedure: Chemicals and reagents—Bacterial lipopolysaccharide (LPS; B E. coli 055:B5) was from Sigma (St. […] (Eugene, Oreg.); DCFH-DA was dissolved in dimethyl sulfoxide (DMSO) as a stock solution and kept frozen at −20° C. […] Positive control compounds included caffeic acid and Trolox obtained from Sigma (St. Louis, Mo.) and were of the highest purity commercially available. […] Unless otherwise noted, all standard reagents were obtained from Sigma and were the purest commercially available. […] Excess DCFH-DA was removed by centrifuging the cells for 10 minutes and resuspending them in the original growth medium. Cells were plated in microtiter wells at a concentration of approximately 10^6 cells per well. […] Fluorescence for each well was captured, digitized and stored on a computer using Cytofluor (Version 4.0). Measurements of fluorescence were made every ten minutes for 60 minutes. The change in DCF fluorescence is presented relative to the LPS-stimulated Jurkat cells alone; […] […] Antioxidant activity of the test materials—Oxidative stress was measured in cells using DCFH-DA in a microtiter plate assay as previously described [Wang, H. and Joseph, J. A. (1999) Quantifying cellular oxidative stress by dichlorofluorescein assay using microplate reader. […] Thus, the assay can be used to quantify overall oxidative stress in cells. […] Cm is determined from the x-intercept of the median-effect plot. […]

The conditions of test [3]: clinical trials; cited from earlier work.

The IC50 is the concentration at which inhibition is half-maximal. For the compound `O=C(O)/C=C/c1ccc(O)c(O)c1` [Caffeic acid, caffeic acid], the IC50 in test [1] came out at 3.3 µg/mL; in test [2] it was 3.2 µg/mL.

In the case of `CC(=O)Oc1ccccc1C(=O)O` [Aspirin, acetylsalicylic acid], the “reduction of primary and secondary incidence of myocardial infarction and other CVDs” value in test [3] is reported as “approximately 25%”.

Regarding `Cc1c(C)c2c(c(C)c1O)CCC(C)(C(=O)O)O2` (stereo not shown) [Trolox], the IC50 in test [2] is 5.4 µg/mL.
